BindingDB's records for doi:10.1016/j.bmc.2021.116291 (Fudan University School of Pharmacy, 2021)

Biological target: Glucagon-like peptide 1 receptor (Homo sapiens, UniProt P43220)
Experiment: Binding affinity to GLP1R (unknown origin) assessed as dissociation rate constant by surface plasmon resonance analysis

Glucagon-like peptide 1 receptor, sequence (P43220 whole entry): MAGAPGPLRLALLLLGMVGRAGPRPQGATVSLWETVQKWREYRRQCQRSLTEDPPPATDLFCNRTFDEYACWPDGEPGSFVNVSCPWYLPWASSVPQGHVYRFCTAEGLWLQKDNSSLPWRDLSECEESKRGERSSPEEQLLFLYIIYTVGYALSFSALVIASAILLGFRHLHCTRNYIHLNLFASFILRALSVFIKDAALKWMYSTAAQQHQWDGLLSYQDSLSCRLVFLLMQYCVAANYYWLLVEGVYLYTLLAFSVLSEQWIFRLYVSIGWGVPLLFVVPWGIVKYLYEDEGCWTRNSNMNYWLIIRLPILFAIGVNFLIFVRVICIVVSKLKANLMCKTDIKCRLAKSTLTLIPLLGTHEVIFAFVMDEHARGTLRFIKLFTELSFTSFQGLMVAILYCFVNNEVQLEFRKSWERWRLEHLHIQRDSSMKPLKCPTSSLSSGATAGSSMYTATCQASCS

Row | Structure (SMILES) | koff [s⁻¹]
1 | CCCCCCCCCCCC(=O)N[C@@H](CCC(=O)NCCCC[C@H](NC(=O)CC[C@H](NC(=O)CCCCCCCCCCC)C(=O)O)C(=O)NCCOCCOCC(=O)O)C(=O)O | 0.0065
2 | CCCCCCCCCCCC(=O)N[C@@H](CCC(=O)NCCCC[C@H](NC(=O)CC[C@H](NC(=O)CCCCCCCCCCC)C(=O)O)C(=O)NCCOCCOCC(=O)NCCOCCOCC(=O)O)C(=O)O | 0.00857
3 | CCCCCCCCCCCC(=O)N[C@@H](CCC(=O)NCCCC[C@H](NC(=O)CC[C@H](NC(=O)CCCCCCCCCCC)C(=O)O)C(=O)NCCOCCOCC(=O)NCCOCCOCC(=O)NCCOCCOCC(=O)O)C(=O)O | 0.0237
